Columns and labels:
MDCK-MDR1 cells = experiment: A2B permeability (Papp) in MDCK-MDR1 cell monolayers; assay type: in vitro ADME; parameters: dose or concentration left out as unconfirmed; details: MDCK-MDR1 monolayer, A-B direction, HBSS pH 7.4, 60 min, 37° C.
Procedure: (§1) MDCK-MDR1 cells obtained from the NIH (Rockville, MD, USA) are used between passage numbers 6-30. Cells are seeded onto Millipore Multiscreen Transwell plates at 3.4×10^5 cells/cm2. The cells are cultured in DMEM and media is changed on day 3. On day 4 the permeability study is performed. Cell culture and assay incubations are carried out at 37° C. in an atmosphere of 5% CO2 with a relative humidity of 95%. On the day of the assay, the monolayers are prepared by rinsing both apical and basolateral surfaces twice with Hanks Balanced Salt Solution (HBSS) at the desired pH warmed to 37° C. Cells are then incubated with HBSS at the desired pH in both apical and basolateral compartments for 40 min to stabilise physiological parameters.
(§2) The dosing solutions are prepared by diluting test compound with assay buffer to give a final test compound concentration of […] (final DMSO concentration of 1% v/v). The fluorescent integrity marker lucifer yellow is also included in the dosing solution. […]
(§3) Test compound permeability is assessed in duplicate. […]
(§4) Test and control compounds are quantified by LC-MS/MS cassette analysis using a 7-point calibration with appropriate dilution of the samples. […] The starting concentration (CO) is determined from the dosing solution and the experimental recovery calculated from CO and both apical and basolateral compartment concentrations.
(§5) The integrity of the monolayer throughout the experiment is checked by monitoring lucifer yellow permeation using fluorimetric analysis. […] If a lucifer yellow Papp value is above a pre-defined threshold in one well, but the derived Papp result for test compound or marker compound in that well is qualitatively similar to that determined in the remaining replicate well (within the lucifer yellow threshold) then, based upon the scientific judgement of the responsible scientist, the cell monolayer may be considered acceptable. […] If this re-occurs upon repeat in both wells then toxicity or inherent fluorescence of the test compound is assumed. […]

[1] = as above; assay type: in vitro ADME; parameters: dose or concentration left out as unconfirmed; details: dog; MDCK-MDR1 monolayer, A-B direction, HBSS pH 7.4, 60 min, 37° C.
Procedure: as §1, §2, §3, §4, §5

| Compound | A2B Papp (MDCK-MDR1 cells) | Papp A→B at 60 min [1] |
| --- | --- | --- |
| CCn1cc(C(=O)N2CC3(CCOCC3)C2)c(=O)c2cc(OC3Cc4ccccc4C3)cnc21 [Example 23, 1-Ethyl-6-indan-2-yloxy-3-(7-oxa-2-azaspiro[3.5]nonane-2-carbonyl)-1,8-naphthyridin-4-one] | 23 1.24 10^−6 cm/s | – |
| CCn1cc(C(=O)N2C[C@H]3C[C@@H]2CO3)c(=O)c2cc(OC3Cc4ccccc4C3)cnc21 (stereo in doubt) [Example 17, 1-Ethyl-6-indan-2-yloxy-3-[(1R,4R)-2-oxa-5-azabicyclo[2.2.1]heptane-5-carbonyl]-1,8-naphthyridin-4-one] | – | 0.87 ×10⁻⁶ cm/s |
| CCn1cc(C(=O)N2C3COCC2C3)c(=O)c2cc(OC3Cc4ccccc4C3)cnc21 [Example 16, 1-Ethyl-6-indan-2-yloxy-3-(3-oxa-6-azabicyclo[3.1.1]heptane-6-carbonyl)-1,8-naphthyridin-4-one] | 16 2.06 10^−6 cm/s | – |

— patent publication US20250214998A1, “CYCLIC COMPOUNDS AS RECEPTOR MODULATING THERAPEUTICS AND METHODS AND USES THEREOF” (BIONOMICS LIMITED, priority 2018, published 2025)
